Earlier results, collected in paper PMC10787790, “Isatin-tethered halogen-containing acylhydrazone derivatives as monoamine oxidase inhibitor with neuroprotective effect” (Scientific Reports, 2024).

System: MAO-B
Conditions: printed in Figure 2 (design strategy), no reference given; cited from earlier work

O=C1Nc2ccc(Cl)cc2/C1=N\NC(=O)c1ccc2c(c1)OCO2 [Compound 2A]
IC50: 0.089 µM
